In data set [1] the test system is human breast squamous HCC1806 cell line. Briefly: CyQUANT Direct cell proliferation assay, HCC1806. The class given is cell-based. Particulars: HCC1806, 168 h, 7 days. From the text: The human ovarian carcinoma OVCAR3 cell line (ATCC HTB-161™) or human breast squamous HCC1806 cell line (ATCC CRL 2335) were obtained from American Type Culture Collection (ATCC), and maintained in culture media according to the supplier's specification.
The CyQUANT® Direct Cell Proliferation Assay Kit (Invitrogen™, catalog No. G35012) was utilized to test the inhibitory activities of the CDK2 inhibitors described in this disclosure against OVCAR3 or HCC1806 tumor cells.
CyQUANT® Direct Cell Proliferation Assay: The spent medium from the purchased tumor cell culture plate was removed and the tumor cells were washed with PBS buffer twice. Trypsin (VWR catalog No. 0458-25G) was added to digest the tumor cells until tumor cells appeared round shaped and to dissociate adherent cells from the plate wall in which they are being cultured. Then RPMI-1640 media (HCC1806, Gibco™ catalog No, A10491-01) with 10% fetal bovine serum (FBS) (Hyclone™ catalog No. SV30160.03), or RPMI-1640 media (OVCAR-3, Gibco™ catalog No. 10370-021) with 20% FBS and 0.01 mg/mL insulin was added to stop the trypsin digestion reaction. The tumor cells were lightly agitated with a liquid transfer pipette to cause tumor cells suspended in the culture media. The cells were counted. The complete medium was used to prepare tumor cell suspension.
OVCAR3 or HCC1806 cells were seeded at 40 μL/well in 384-well plates in growth media containing FBS and cultured 24 hours in the incubator at 37° C., 5% CO2. […] Compound solutions were added by Agilent Bravo liquid handler. […] The control wells contained the growth medium having 0.1% DMSO. Cells were incubated at 37° C., 5% CO2 for 7 days.
CYQUANT Direct Cell Proliferation Assay (Molecular Probes, Eugene, Oreg.) was then performed following manufacturer's instructions to prepare the detection reagents. 50 μL of detection reagent was aliquot and added to each well and the cells were incubated at 37° C. for 1 hr.
The cell culture plates were placed on TECAN M1000 microplate reader to detect the fluorescence intensity at 508 nm excitation and 527 nm emission wavelengths. Graphpad Prism 6.0 software was used for data processing, preparing cell growth curve, calculating percentage inhibition on cell growth. IC50 values were calculated by concentration-response curve fitting utilizing a four-parameter analytical method using GraphPad Prism software.

Data set [2] has as its system HCC1806 s.c. xenografts. Briefly: HCC1806 s.c. breast cancer xenograft efficacy (tumor volume, relative tumor volume, tumor weight, TGI). The class given is in vivo, BALB/c nude mice. Particulars: 30 mg/kg P.O. BID; for Tumor Growth Inhibition D3 / Tumor Growth Inhibition D7 / Tumor Growth Inhibition D10 / Tumor Growth Inhibition D14 / Tumor Growth Inhibition D17 / Tumor Growth Inhibition D21: vs control vehicle; for Tumor Growth Inhibition D3 / Tumor volume D3: day 3; for Tumor Growth Inhibition D7 / Tumor volume D7: day 7; for Tumor Growth Inhibition D10 / Tumor volume D10: day 10; for Tumor Growth Inhibition D14 / Tumor volume D14: day 14; for Tumor Growth Inhibition D17 / Tumor volume D17: day 17; for Tumor Growth Inhibition D21 / Tumor volume D21: day 21; for Tumor volume D0 / Tumor volume D3 / Tumor volume D7 / Tumor volume D10 / Tumor volume D14 / Tumor volume D17 / Tumor volume D21 / Tumor weight: group mean; for Tumor volume D0: day 0; for Tumor weight: end of the study (Day 21). Here is the method:
The in vivo potency of anti-tumor activities of Comp. 4, Comp. 37, Comp. 5, Comp. 28, Comp. 163, and Comp. 164 have been evaluated on the growth of HCC1806 s.c. xenografts in BALB/c nude mice.
The testing compounds Comp. 4, Comp. 37, Comp. 5, Comp. 28, Comp. 163, and Comp. 164 were prepared according the synthetic routes set forth in the above Examples. The testing formulations for compounds Comp. 4, Comp. 37, Comp. 5, Comp. 28, Comp. 163, and Comp. 164 were prepared as liquid formulation in a liquid vehicle containing 0.1% Tween-80 (purchased form Sinopharm Chemical Reagent Co., Ltd, Lot No. 20190322), 0.5% methyl cellulose (purchased from SIGMA, Lot No. SLBR8963V) in water.
A total of 42+8 female BALB/c nude mice were ordered from Shanghai LC Laboratory Animal Co. Ltd. The animals were specific pathogen free and approximately 4-5 weeks old upon arrival at PharmaLegacy Laboratories.
HCC1806 cell cultures were maintained at 37° C. under 5% CO2 in RPMI-1640 medium supplemented with 10% FBS and were subsequently cultured within 10 passages before inoculated into the mice.
(§1) When the average tumor volume reached 80-120 mm^3, 42 tumor-bearing mice were randomized into 7 groups (6 mice per group) according to tumor volume. The grouping day was defined as Day 0. Treatment was applied immediately after grouping animals on the same day.
(§2) The body weight of the testing animals were measured twice a week after grouping. Tumor volumes by the length and width of the tumor were measured by electric calipers and the tumor volume (V) was calculated as follows: V=(length×width^2)/2. The individual relative tumor volume (RTV) was calculated as follows: RTV=Vt/V0, where Vt was the volume on each day, and V0 was the volume at the beginning of the treatment.
Tumors were collected at the end of the study (Day 21), the mice were sacrificed. Tumor was collected, weighed, photographed.
(§3) Results were expressed as mean±S.E.M. Comparisons between two groups were made by corresponding test, p<0.05 were considered to be significant.

Data set [3] is described as follows: Body weight in the HCC1806 xenograft study. In kind it is in vivo, BALB/c nude mice. The note with it: group mean, 30 mg/kg P.O. BID; for Body weight D0: day 0; for Body weight D3: day 3; for Body weight D7: day 7; for Body weight D10: day 10; for Body weight D14: day 14; for Body weight D17: day 17; for Body weight D21: day 21. As for the experimental part:
as §1, §2, §3

Molecules are shown by their SMILES.

In the case of `C[C@@]1(O)CCC[C@H]1n1c(=O)c(C(F)F)cc2cnc(NC3CCN(S(C)(=O)=O)CC3)nc21` (racemic) [Comp. 2, (±)-8-(2-hydroxy-2-methylcyclopentyl)-6-difluoromethyl-2-((1-(methylsulfonyl)piperidin-4-yl)amino)pyrido[2,3-d]pyrimidin-7(8H)-one, reference compound], half-maximal inhibition in data set [1] (IC50) was put at 59 nM.
Same read-out and setting: under `[2H]C1([2H])CN(S(C)(=O)=O)CC([2H])([2H])C1Nc1ncc2cc(C)c(=O)n([C@@H]3CCC[C@@]3(C)O)c2n1` [Comp. 67, (−)-8-((1R,2R)-2-hydroxy-2-methylcyclopentyl)-6-methyl-2-((1-(methylsulfonyl)piperidin-4-yl-3,3,5,5-d4)amino)pyrido[2,3-d]pyrimidin-7(8H)-one] stands 65.9 nM.
The same measure, in the same setting: with `[2H]C([2H])([2H])S(=O)(=O)N1CCC(Nc2ncc3cc(C)c(=O)n([C@@H]4CCC[C@@]4(C)O)c3n2)CC1` [Comp. 74, (−)-8-((1R,2R)-2-hydroxy-2-methylcyclopentyl)-6-methyl-2-((1-((methyl-d3)sulfonyl)piperidin-4-yl)amino)pyrido[2,3-d]pyrimidin-7(8H)-one] the figure was 83.7 nM; with `[2H]C([2H])([2H])S(=O)(=O)N1CCC(Nc2ncc3cc(C(F)F)c(=O)n([C@@H]4CCC[C@@]4(C)O)c3n2)CC1` [Comp. 85, (−)-6-(difluoromethyl)-8-((1R,2R)-2-hydroxy-2-methylcyclopentyl)-2-((1-((methyl-d3)sulfonyl)piperidin-4-yl)amino)pyrido[2,3-d]pyrimidin-7(8H)-one], 84.5 nM.
Still for that read-out and setting: under `[2H]C(F)(F)c1cc2cnc(NC3CCN(S(=O)(=O)C([2H])([2H])[2H])CC3)nc2n([C@@H]2CCC[C@@]2(C)O)c1=O` [Comp. 92, (−)-6-(difluoromethyl-d)-8-((1R,2R)-2-hydroxy-2-methylcyclopentyl)-2-((1-((methyl-d3)sulfonyl)piperidin-4-yl)amino)pyrido[2,3-d]pyrimidin-7(8H)-one] stands 67.7 nM.
For `[2H]C1(Nc2ncc3cc(C(F)F)c(=O)n([C@@H]4CCC[C@@]4(C)O)c3n2)CCN(S(C)(=O)=O)CC1` [Comp. 99, (−)-6-(difluoromethyl)-8-((1R,2R)-2-hydroxy-2-methylcyclopentyl)-2-((1-(methylsulfonyl)piperidin-4-yl-4-d)amino)pyrido[2,3-d]pyrimidin-7(8H)-one], in data set [1], it took 65.5 nM to reach half-maximal inhibition (IC50).
In the case of `[2H]C([2H])([2H])c1cc2cnc(NC3([2H])C([2H])([2H])CN(S(=O)(=O)C([2H])([2H])[2H])CC3([2H])[2H])nc2n([C@@H]2CCC[C@@]2(C)O)c1=O` [Comp. 163, (−)-8-((1R,2R)-2-hydroxy-2-methylcyclopentyl)-6-(methyl-d3)-2-((1-((methyl-d3)sulfonyl)piperidin-4-yl-3,3,4,5,5-d5)amino)pyrido[2,3-d]pyrimidin-7(8H)-one], in data set [2], the “tumor volume compared with G1 vehicle on each day” value is “significant smaller tumor volume on day 7, 17 and 21”; the “tumor weight at the end of the study, in words” value is given as “lighter tumor but no statistic significance”; the “Tumor Growth Inhibition D3” value stood at 38.81%; the “Tumor Growth Inhibition D7” value is listed as 34.97%. In addition, in data set [2], the “Tumor Growth Inhibition D10” value was determined as 34.46%, the “Tumor Growth Inhibition D14” value came out at 30.36%, the “Tumor Growth Inhibition D17” value is listed as 36.67% and the “Tumor Growth Inhibition D21” value is recorded as 40.94%. Further, in data set [2], the “Tumor volume D0” value worked out at 110.66 mm^3, the “Tumor volume D3” value came out at 223.62 mm^3, the “Tumor volume D7” value is on record as 443.83 mm^3 and the “Tumor volume D10” value is 702.37 mm^3. Moreover, in data set [2], the “Tumor volume D14” value is 1048.55 mm^3, the “Tumor volume D17” value is 1257.00 mm^3, the “Tumor volume D21” value was 1397.61 mm^3 and the Tumor weight turned out to be 2.20 g. In data set [3], the “Body weight D0” value is 17.54 g, the “Body weight D3” value is listed as 17.61 g, the “Body weight D7” value was found to be 17.72 g and the “Body weight D10” value is 17.67 g. In data set [3], the “Body weight D14” value stood at 18.32 g, the “Body weight D17” value is 18.66 g and the “Body weight D21” value is reported as 17.95 g.
Turning to `[2H]C([2H])([2H])c1cc2cnc(NC3([2H])C([2H])([2H])CN(S(C)(=O)=O)CC3([2H])[2H])nc2n([C@@H]2CCC[C@@]2(C)O)c1=O` [Comp. 164, (−)-8-((1R,2R)-2-hydroxy-2-methylcyclopentyl)-6-(methyl-d3)-2-((1-(methylsulfonyl)piperidin-4-yl-3,3,4,5,5-d5)amino)pyrido[2,3-d]pyrimidin-7(8H)-one], in data set [2], the “tumor weight at the end of the study, in words” value is “lighter tumor but no statistic significance”; the “Tumor Growth Inhibition D3” value is given as 29.37%; the “Tumor Growth Inhibition D7” value is 15.49%; the “Tumor Growth Inhibition D10” value is listed as 21.94%. Moreover, in data set [2], the “Tumor Growth Inhibition D14” value is on record as 18.56%, the “Tumor Growth Inhibition D17” value is recorded as 29.97%, the “Tumor Growth Inhibition D21” value was found to be 31.27% and the “Tumor volume D0” value was determined as 112.74 mm^3. In addition, in data set [2], the “Tumor volume D3” value is 243.14 mm^3, the “Tumor volume D7” value is reported as 545.66 mm^3, the “Tumor volume D10” value is given as 817.53 mm^3 and the “Tumor volume D14” value was determined as 1209.55 mm^3. Further, in data set [2], the “Tumor volume D17” value is listed as 1380.25 mm^3, the “Tumor volume D21” value was 1610.30 mm^3 and the Tumor weight is on record as 2.51 g. Moreover, in data set [3], the “Body weight D0” value was determined as 18.47 g, the “Body weight D3” value is recorded as 18.47 g, the “Body weight D7” value is reported as 18.70 g and the “Body weight D10” value amounted to 18.37 g. Further, in data set [3], the “Body weight D14” value is reported as 17.86 g, the “Body weight D17” value came out at 18.20 g and the “Body weight D21” value turned out to be 17.29 g.
